molecular target: T1, human Npt2a (Homo sapiens, UniProt Q06495); assay: Npt2a activity cell based assay, membrane potential dye, CHO T-REx hNpt2a cells; settings: doxycycline-induced, depolarization by sodium phosphate influx, average or median values if tested more than once
T1 construct: expressed in transfected cells
T1 sequence (Q06495 1-639): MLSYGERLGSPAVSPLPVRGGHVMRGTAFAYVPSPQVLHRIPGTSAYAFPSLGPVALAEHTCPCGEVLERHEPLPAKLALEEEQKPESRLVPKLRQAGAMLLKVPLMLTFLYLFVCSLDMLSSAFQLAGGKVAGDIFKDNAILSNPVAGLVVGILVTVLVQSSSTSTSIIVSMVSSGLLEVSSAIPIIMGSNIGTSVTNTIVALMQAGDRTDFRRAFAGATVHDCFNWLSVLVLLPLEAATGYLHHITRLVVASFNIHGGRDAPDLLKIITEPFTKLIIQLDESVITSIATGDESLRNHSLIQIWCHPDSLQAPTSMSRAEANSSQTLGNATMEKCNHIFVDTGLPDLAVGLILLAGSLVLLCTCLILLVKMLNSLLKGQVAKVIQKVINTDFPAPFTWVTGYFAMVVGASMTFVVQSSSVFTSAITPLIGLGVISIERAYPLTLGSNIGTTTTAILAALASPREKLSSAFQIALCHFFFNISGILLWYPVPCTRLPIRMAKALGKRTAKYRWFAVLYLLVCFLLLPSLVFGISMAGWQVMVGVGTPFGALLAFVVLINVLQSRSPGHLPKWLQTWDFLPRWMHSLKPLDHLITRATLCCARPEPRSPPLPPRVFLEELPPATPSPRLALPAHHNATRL
Summary of the method: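 Cells were doxycycline-induced CHO T-REx hNpt2a, dye-loaded and pretreated 5 min at RT with 1 nM–50 μM compound in Na-free pH 7.4 buffer. IC50 was fit to the post/pre-trigger fluorescence ratio.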

Structure (SMILES) | IC50
Cc1c(-c2ccc(F)cc2)nn(CC2CC2)c1Nc1cc(-n2nc3c(c2C)C(C)(O)CC3)ncn1 (single isomer, unassigned) [Example 516, 2-(6-{[1-(cyclopropylmethyl)-3-(4-fluorophenyl)-4-methyl-1H-pyrazol-5-yl]amino}pyrimidin-4-yl)-3,4-dimethyl-2,4,5,6-tetrahydrocyclopenta[c]pyrazol-4-ol] | 0.031 µM
CCc1c(Nc2cc(-n3nc(C)cc3C)ncn2)nn(C)c1-c1ccc(F)cc1 [Example 1, 6-(3,5-dimethyl-1H-pyrazol-1-yl)-N-[4-ethyl-5-(4-fluorophenyl)-1-methyl-1H-pyrazol-3-yl]pyrimidin-4-amine] | 0.00448 µM
CCc1c(-c2ccc(F)cc2)n[nH]c1Nc1cc(-n2nc(C)cc2C(F)F)ncn1 [Example 2, 6-[5-(difluoromethyl)-3-methyl-1H-pyrazol-1-yl]-N-[4-ethyl-3-(4-fluorophenyl)-1H-pyrazol-5-yl]pyrimidin-4-amine] | 0.012 µM
Cc1nn(-c2cc(Nc3[nH]nc(-c4ccc(F)cc4F)c3Cl)ncn2)c(C)c1Cl [Example 3, N-[4-chloro-3-(2,4-difluorophenyl)-1H-pyrazol-5-yl]-6-(4-chloro-3,5-dimethyl-1H-pyrazol-1-yl)pyrimidin-4-amine] | 0.013 µM
CCOC(=O)c1c(C)nn(-c2cc(Nc3n[nH]c(-c4ccc(F)cc4)c3CC)ncn2)c1C [Example 4, ethyl 1-(6-{[4-ethyl-5-(4-fluorophenyl)-1H-pyrazol-3-yl]amino}pyrimidin-4-yl)-3,5-dimethyl-1H-pyrazole-4-carboxylate] | 0.0283 µM
CCc1c(Nc2cc(-n3nc(C)c(Cl)c3C)ncn2)n[nH]c1-c1ccc(F)cc1 [Example 5, 6-(4-chloro-3,5-dimethyl-1H-pyrazol-1-yl)-N-[4-ethyl-5-(4-fluorophenyl)-1H-pyrazol-3-yl]pyrimidin-4-amine] | 0.0275 µM
Cc1cc(C)n(-c2cc(Nc3n[nH]c(-c4ccc(F)cc4F)c3Cl)ncn2)n1 [Example 6, N-[4-chloro-5-(2,4-difluorophenyl)-1H-pyrazol-3-yl]-6-(3,5-dimethyl-1H-pyrazol-1-yl)pyrimidin-4-amine] | 0.049 µM
Cc1cc(C)n(-c2cc(Nc3n[nH]c(-c4ccc(F)cc4)c3C3CC3)ncn2)n1 [Example 7, N-[4-cyclopropyl-5-(4-fluorophenyl)-1H-pyrazol-3-yl]-6-(3,5-dimethyl-1H-pyrazol-1-yl)pyrimidin-4-amine] | 0.036 µM
Cc1nn(-c2cc(Nc3[nH]nc(-c4ccc(F)cc4)c3C3CC3)ncn2)c(C)c1Cl [Example 8, 6-(4-chloro-3,5-dimethyl-1H-pyrazol-1-yl)-N-[4-cyclopropyl-3-(4-fluorophenyl)-1H-pyrazol-5-yl]pyrimidin-4-amine] | 0.038 µM
CCc1c(Nc2cc(-n3nc(C)cc3C)ncn2)n[nH]c1-c1ccc(F)cc1F [Example 9, N-[5-(2,4-difluorophenyl)-4-ethyl-1H-pyrazol-3-yl]-6-(3,5-dimethyl-1H-pyrazol-1-yl)pyrimidin-4-amine] | 0.04 µM
Cc1cc(C)n(-c2cc(Nc3[nH]nc(-c4ccccc4)c3C)ncn2)n1 [Example 10, 6-(3,5-dimethyl-1H-pyrazol-1-yl)-N-(4-methyl-3-phenyl-1H-pyrazol-5-yl)pyrimidin-4-amine] | 0.0337 µM
Cc1nn(-c2cc(Nc3n[nH]c(-c4ccccc4)c3C)ncn2)c(C)c1Cl [Example 11, 6-(4-chloro-3,5-dimethyl-1H-pyrazol-1-yl)-N-(4-methyl-5-phenyl-1H-pyrazol-3-yl)pyrimidin-4-amine] | 0.0503 µM
CCc1c(-c2ccc(F)cc2)nn(C)c1Nc1cc(-n2nc(C)cc2C)ncn1 [Example 12, 6-(3,5-dimethyl-1H-pyrazol-1-yl)-N-[4-ethyl-3-(4-fluorophenyl)-1-methyl-1H-pyrazol-5-yl]pyrimidin-4-amine] | 0.05 µM
CCc1c(-c2ccc(F)cc2)n[nH]c1Nc1cc(-n2nc(C)cc2C)ncn1 [Example 13, 6-(3,5-dimethyl-1H-pyrazol-1-yl)-N-[4-ethyl-3-(4-fluorophenyl)-1H-pyrazol-5-yl]pyrimidin-4-amine] | 0.0619 µM
Cc1cc(C)n(-c2cc(Nc3[nH]nc(-c4ccc(F)cc4)c3Cl)ncn2)n1 [Example 14, N-[4-chloro-3-(4-fluorophenyl)-1H-pyrazol-5-yl]-6-(3,5-dimethyl-1H-pyrazol-1-yl)pyrimidin-4-amine] | 0.07 µM
CCOC(=O)c1c(C)nn(-c2cc(Nc3[nH]nc(-c4ccc(F)cc4)c3C3CC3)ncn2)c1C [Example 15, ethyl 1-(6-{[4-cyclopropyl-3-(4-fluorophenyl)-1H-pyrazol-5-yl]amino}pyrimidin-4-yl)-3,5-dimethyl-1H-pyrazole-4-carboxylate] | 0.072 µM

Structure (SMILES) | IC50
CCOC(=O)c1c(C)nn(-c2cc(Nc3n[nH]c(-c4ccccc4)c3C)ncn2)c1C [Example 16, ethyl 3,5-dimethyl-1-{6-[(4-methyl-5-phenyl-1H-pyrazol-3-yl)amino]pyrimidin-4-yl}-1H-pyrazole-4-carboxylate] | 0.081 µM
Cc1cc(C)n(-c2cc(Nc3n[nH]c(-c4ccc(F)cc4)c3C)ncn2)n1 [Example 17, 6-(3,5-dimethyl-1H-pyrazol-1-yl)-N-[5-(4-fluorophenyl)-4-methyl-1H-pyrazol-3-yl]pyrimidin-4-amine] | 0.1 µM
CCc1c(Nc2cc(-n3cc4c(n3)CCCC4)ncn2)n[nH]c1-c1ccc(F)cc1 [Example 18, N-[4-ethyl-5-(4-fluorophenyl)-1H-pyrazol-3-yl]-6-(4,5,6,7-tetrahydro-2H-indazol-2-yl)pyrimidin-4-amine] | 0.11 µM
CCc1c(Nc2cc(-n3nc(C)c4ccccc43)ncn2)n[nH]c1-c1ccc(F)cc1 [Example 19, N-[4-ethyl-5-(4-fluorophenyl)-1H-pyrazol-3-yl]-6-(3-methyl-1H-indazol-1-yl)pyrimidin-4-amine] | 0.11 µM
CCc1c(Nc2cc(-n3cc4c(n3)CCC4)ncn2)n[nH]c1-c1ccc(F)cc1 [Example 20, 6-(5,6-dihydrocyclopenta[c]pyrazol-2(4H)-yl)-N-[4-ethyl-5-(4-fluorophenyl)-1H-pyrazol-3-yl]pyrimidin-4-amine] | 0.12 µM
CCc1c(Nc2cc(-n3nc(C)cc3C)ncn2)n[nH]c1-c1ccc(Cl)cc1 [Example 21, N-[5-(4-chlorophenyl)-4-ethyl-1H-pyrazol-3-yl]-6-(3,5-dimethyl-1H-pyrazol-1-yl)pyrimidin-4-amine] | 0.14 µM
CCc1c(Nc2cc(-n3ncc4c3CCCC4)ncn2)n[nH]c1-c1ccc(F)cc1 [Example 22, N-[4-ethyl-5-(4-fluorophenyl)-1H-pyrazol-3-yl]-6-(4,5,6,7-tetrahydro-1H-indazol-1-yl)pyrimidin-4-amine] | 0.15 µM
Cc1cc(C)n(-c2cc(Nc3nn(C)c(-c4ccc(F)cc4)c3C#N)ncn2)n1 [Example 23, 3-{[6-(3,5-dimethyl-1H-pyrazol-1-yl)pyrimidin-4-yl]amino}-5-(4-fluorophenyl)-1-methyl-1H-pyrazole-4-carbonitrile] | 0.315 µM
Cc1cc(C)n(-c2cc(Nc3c(C#N)c(-c4ccc(F)cc4)nn3C)ncn2)n1 [Example 24, 5-{[6-(3,5-dimethyl-1H-pyrazol-1-yl)pyrimidin-4-yl]amino}-3-(4-fluorophenyl)-1-methyl-1H-pyrazole-4-carbonitrile] | 0.31 µM
CCc1c(Nc2cc(-n3nc(C)c(C)c3O)ncn2)nn(C)c1-c1ccc(F)cc1 [Example 25, 1-(6-{[4-ethyl-5-(4-fluorophenyl)-1-methyl-1H-pyrazol-3-yl]amino}pyrimidin-4-yl)-3,4-dimethyl-1H-pyrazol-5-ol] | 1.07 µM
CCc1c(Nc2cc(-n3cc4c(n3)CN(C(=O)OC(C)(C)C)CC4)ncn2)n[nH]c1-c1ccc(F)cc1 [Example 26, tert-butyl 2-(6-{[4-ethyl-5-(4-fluorophenyl)-1H-pyrazol-3-yl]amino}pyrimidin-4-yl)-2,4,5,7-tetrahydro-6H-pyrazolo[3,4-c]pyridine-6-carboxylate] | 0.46 µM
CCc1c(Nc2cc(-n3ncc4c3CCC4)ncn2)n[nH]c1-c1ccc(F)cc1 [Example 27, 6-(5,6-dihydrocyclopenta[c]pyrazol-1 (4H)-yl)-N-[4-ethyl-5-(4-fluorophenyl)-1H-pyrazol-3-yl]pyrimidin-4-amine] | 0.46 µM
CCc1c(Nc2cc(-n3nc(C)cc3C)ncn2)n[nH]c1C1CCCCC1 [Example 28, N-(5-cyclohexyl-4-ethyl-1H-pyrazol-3-yl)-6-(3,5-dimethyl-1H-pyrazol-1-yl)pyrimidin-4-amine] | 0.49 µM
CCc1c(Nc2cc(-n3nc4c(c3O)CCCC4)ncn2)nn(C)c1-c1ccc(F)cc1 [Example 29, 2-(6-{[4-ethyl-5-(4-fluorophenyl)-1-methyl-1H-pyrazol-3-yl]amino}pyrimidin-4-yl)-4,5,6,7-tetrahydro-2H-indazol-3-ol] | 1.42 µM
CCc1c(Nc2cc(-n3nc4c(c3O)CCCC4)ncn2)n[nH]c1-c1ccc(F)cc1 [Example 30, 2-(6-{[4-ethyl-5-(4-fluorophenyl)-1H-pyrazol-3-yl]amino}pyrimidin-4-yl)-4,5,6,7-tetrahydro-2H-indazol-3-ol] | 0.62 µM

From patent publication US11208400B2, “Substituted 6-(1H-pyrazol-1-yl)pyrimidin-4-amine derivatives and uses thereof” (Bayer Aktiengesellschaft, priority 2016, dated 2021)
